We go through 19 compounds from US10208067B2, “Compounds for treating spinal muscular atrophy” (Hoffmann-La Roche Inc., priority 2015, dated 2019).

Assay [1] concerns full length SMN2 minigene mRNA (HEK293H cells stably transfected with SMN2-A minigene). The assay is described as follows: RT-qPCR assay for SMN2 minigene pre-mRNA splicing in cultured cells. The assay is classed as cell-based. Conditions: Homo sapiens, HEK293-H, Table 3 (title: production of full length SMN2 minigene mRNA), 24 hours, read-out: EC1.5x SMN protein.
The test system of assay [2] is SMN protein in SMA patient fibroblast cells (GM03813). In words: SMN protein assay (HTRF) in cultured cells. The assay is classed as cell-based. Conditions: Homo sapiens, SMA Type 1 patient fibroblasts, 48 hours; for EC (1.5-fold): concentration producing 1.5 times SMN protein vs vehicle, read-out: EC1.5x SMN protein; for maximal fold induction: relative to vehicle control, read-out: max. fold increase of SMN protein. How it is done: The SMN HTRF (homogeneous time resolved fluorescence) assay is used to quantify the level of SMN protein in SMA patient fibroblast cells treated with test compounds. Materials used and respective sources are listed below in Table 4.
Cells are thawed and cultured in DMEM-10% FBS for 72 hours. Cells are trypsinized, counted and re-suspended to a concentration of 25,000 cells/mL in DMEM-10% FBS. The cell suspensions are plated at 5,000 cells per well in a 96 well microtiter plate and incubated for […]. […] 1 μL of test compound solution is transferred to cell-containing wells and cells are incubated for 48 hours in a cell culture incubator (37° C., 5% CO2, 100% relative humidity). Triplicate samples are set up for each test compound concentration. After 48 hours, the supernatant is removed from the wells and 25 μL of the RIPA lysis buffer, containing protease inhibitors, is added to the wells and incubated with shaking at room temperature for 1 hour. 25 μL of the diluent is added and then 35 μL of the resulting lysate is transferred to a 384-well plate, where each well contains 5 μL of the antibody solution (1:100 dilution of anti-SMN d2 and anti-SMN cryptate in SMN reconstitution buffer). The plate is centrifuged for 1 minute to bring the solution to the bottom of the wells, then incubated overnight at room temperature. Fluorescence for each well of the plate at 665 nm and 620 nm is measured on an EnVision multilabel plate reader (Perkin-Elmer).
The normalized fluorescence signal is calculated for each sample, Blank and vehicle control well by dividing the signal at 665 nm by the signal at 620 nm. Normalizing the signal accounts for possible fluorescence quenching due to the matrix effect of the lysate. The ΔF value (a measurement of SMN protein abundance as a percent value) for each sample well is calculated by subtracting the normalized average fluorescence for the Blank control wells from the normalized fluorescence for each sample well, then dividing this difference by the normalized average fluorescence for the Blank control wells and multiplying the resulting value by 100. The ΔF value for each sample well represents the SMN protein abundance from test compound-treated samples. The ΔF value for each sample well is divided by the ΔF value for the vehicle control wells to calculate the fold increase in SMN protein abundance relative to the vehicle control. Table 5 provides EC1-5× concentrations for SMN protein expression that was obtained from the 7-point concentration data generated according to the above procedure for particular compounds of the present invention.
Table 6 provides the maximum fold increase of SMN protein that was obtained from the 7-point concentration data generated according to the above procedure for particular compounds of the present invention
In general terms: Time-resolved FRET reads energy transfer from a long-lived donor to a nearby acceptor.

`Cc1nc2ccc(-c3cc(=O)n4cc(N5C[C@@H](C)N[C@@H](C)C5)ccc4n3)nn2n1` [Example 22, 7-[(3R,5S)-3,5-dimethylpiperazin-1-yl]-2-(2-methyl-[1,2,4]triazolo[1,5-b]pyridazin-6-yl)pyrido[1,2-a]pyrimidin-4-one]: the EC (1.5-fold) in assay [1] turned out to be 0.0434 µM. Further, in assay [2], the EC (1.5-fold) was found to be 0.228 µM and the maximal fold induction worked out at 1.76.
Regarding `Cc1nc2ncc(-c3cc(=O)n4cc(N5CCN(C)CC5)ccc4n3)cn2n1` [Example 23, 7-(4-methylpiperazin-1-yl)-2-(2-methyl-[1,2,4]triazolo[1,5-a]pyrimidin-6-yl)pyrido[1,2-a]pyrimidin-4-one], the EC (1.5-fold) in assay [1] was 0.0952 µM. Further, in assay [2], the EC (1.5-fold) was 0.477 µM and the maximal fold induction came to 1.68.
As to `Cc1nc2ncc(-c3cc(=O)n4cc(N5CCN[C@H](C)C5)ccc4n3)cn2n1` [Example 24, 7-[(3R)-3-methylpiperazin-1-yl]-2-(2-methyl-[1,2,4]triazolo[1,5-a]pyrimidin-6-yl)pyrido[1,2-a]pyrimidin-4-one], the EC (1.5-fold) stood at 0.0348 µM in assay [1] and 0.121 µM in assay [2]. Besides, the maximal fold induction in assay [2] was determined as 1.87.
Take `Cc1nc2ccc(-c3cc(=O)n4cc(N5CCCN(C)CC5)cc(C)c4n3)nn2n1` [Example 25, 9-methyl-7-(4-methyl-1,4-diazepan-1-yl)-2-(2-methyl-[1,2,4]triazolo[1,5-b]pyridazin-6-yl)pyrido[1,2-a]pyrimidin-4-one]: the EC (1.5-fold) in assay [1] worked out at 0.0103 µM; in assay [2], 0.226 µM. In assay [2], the maximal fold induction is 1.89.
As to `Cc1nc2ccc(-c3cc(=O)n4cc(N5C[C@@H](C)N[C@@H](C)C5)cc(C)c4n3)nn2n1` [Example 26, 7-[(3R,5S)-3,5-dimethylpiperazin-1-yl]-9-methyl-2-(2-methyl-[1,2,4]triazolo[1,5-b]pyridazin-6-yl)pyrido[1,2-a]pyrimidin-4-one], the EC (1.5-fold) in assay [1] is 0.0483 µM. Besides, in assay [2], the EC (1.5-fold) is 0.225 µM and the maximal fold induction stood at 1.88.
For `Cc1nc2ccc(-c3cc(=O)n4cc(N5CCN(C)CC5)cc(C)c4n3)nn2n1` [Example 27, 9-methyl-7-(4-methylpiperazin-1-yl)-2-(2-methyl-[1,2,4]triazolo[1,5-b]pyridazin-6-yl)pyrido[1,2-a]pyrimidin-4-one], in that order: 0.014 µM, 0.0347 µM and 1.74.
`Cc1nc2ccc(-c3cc(=O)n4cc(N5CCNC(C)(C)C5)cc(C)c4n3)nn2n1` [Example 28, 7-(3,3-dimethylpiperazin-1-yl)-9-methyl-2-(2-methyl-[1,2,4]triazolo[1,5-b]pyridazin-6-yl)pyrido[1,2-a]pyrimidin-4-one]: the EC (1.5-fold) in assay [1] came out at 0.0096 µM. In assay [2], the EC (1.5-fold) was 0.0353 µM and the maximal fold induction turned out to be 1.79.
With `Cc1nc2ccc(-c3cc(=O)n4cc(N5C[C@H]6CN(C)C[C@H]6C5)cc(C)c4n3)nn2n1` [Example 29, 7-[(3aS,6aR)-2-methyl-1,3,3a,4,6,6a-hexahydropyrrolo[3,4-c]pyrrol-5-yl]-9-methyl-2-(2-methyl-[1,2,4]triazolo[1,5-b]pyridazin-6-yl)pyrido[1,2-a]pyrimidin-4-one], the EC (1.5-fold) is 0.0008 µM in assay [1] and 0.0077 µM in assay [2]. The maximal fold induction in assay [2] is 1.77.
For `Cc1nc2ccc(-c3cc(=O)n4cc(N5CC[C@@H](N(C)C)C5)cc(C)c4n3)nn2n1` [Example 30, 7-[(3R)-3-(dimethylamino)pyrrolidin-1-yl]-9-methyl-2-(2-methyl-[1,2,4]triazolo[1,5-b]pyridazin-6-yl)pyrido[1,2-a]pyrimidin-4-one], in that order: 0.0065 µM, 0.0279 µM and 1.98.
For `Cc1nc2ccc(-c3cc(=O)n4cc(N5CCN(C6COC6)CC5)cc(C)c4n3)nn2n1` [Example 31, 9-methyl-7-[4-(oxetan-3-yl)piperazin-1-yl]-2-(2-methyl-[1,2,4]triazolo[1,5-b]pyridazin-6-yl)pyrido[1,2-a]pyrimidin-4-one], in that order: 0.13 µM, 1.31 µM and 1.75.
`CCN1CCN(c2cc(C)c3nc(-c4ccc5nc(C)nn5n4)cc(=O)n3c2)CC1` [Example 32, 7-(4-ethylpiperazin-1-yl)-9-methyl-2-(2-methyl-[1,2,4]triazolo[1,5-b]pyridazin-6-yl)pyrido[1,2-a]pyrimidin-4-one]: the EC (1.5-fold) in assay [1] came to 0.0038 µM; in assay [2] it was 0.0725 µM. The maximal fold induction in assay [2] amounted to 1.97.
The corresponding values for `Cc1nc2ccc(-c3cc(=O)n4cc(N5CC6CN(C)CC6C5)ccc4n3)nn2n1` (stereo not drawn) [Example 33, 7-(2-methyl-1,3,3a,4,6,6a-hexahydropyrrolo[3,4-c]pyrrol-5-yl)-2-(2-methyl-[1,2,4]triazolo[1,5-b]pyridazin-6-yl)pyrido[1,2-a]pyrimidin-4-one] are 0.0038 µM, 0.0151 µM and 1.67.
Consider `Cc1nc2ccc(-c3cc(=O)n4cc(N5CCN6CCC[C@@H]6C5)cc(C)c4n3)nn2n1` [Example 34, 7-[(8aR)-3,4,6,7,8,8a-hexahydro-1H-pyrrolo[1,2-a]pyrazin-2-yl]-9-methyl-2-(2-methyl-[1,2,4]triazolo[1,5-b]pyridazin-6-yl)pyrido[1,2-a]pyrimidin-4-one], for which the EC (1.5-fold) in assay [1] is 0.0028 µM. Moreover, in assay [2], the EC (1.5-fold) came to 0.0191 µM and the maximal fold induction was found to be 1.8.
Turning to `Cc1nc2ccc(-c3cc(=O)n4cc(N5CC6(CCNCC6)C5)cc(C)c4n3)nn2n1` [Example 35, 7-(2,7-diazaspiro[3.5]nonan-2-yl)-9-methyl-2-(2-methyl-[1,2,4]triazolo[1,5-b]pyridazin-6-yl)pyrido[1,2-a]pyrimidin-4-one], in assay [1], the EC (1.5-fold) amounted to 0.0022 µM. Besides, in assay [2], the EC (1.5-fold) was found to be 0.0082 µM and the maximal fold induction was found to be 1.9.
`Cc1nc2ccc(-c3cc(=O)n4cc(N5CCN6CCC[C@@H]6C5)ccc4n3)nn2n1` [Example 36, 7-[(8aR)-3,4,6,7,8,8a-hexahydro-1H-pyrrolo[1,2-a]pyrazin-2-yl]-2-(2-methyl-[1,2,4]triazolo[1,5-b]pyridazin-6-yl)pyrido[1,2-a]pyrimidin-4-one]: the values for the EC (1.5-fold) in assay [1] and in assay [2] were 0.0158 µM and 0.0997 µM, respectively. In assay [2], the maximal fold induction was 1.92.
The corresponding values for `Cc1nc2ccc(-c3cc(=O)n4cc(N5C[C@H](C)N[C@@H](C)C5)cc(C)c4n3)nn2n1` [Example 37, 7-[(3S,5S)-3,5-dimethylpiperazin-1-yl]-9-methyl-2-(2-methyl-[1,2,4]triazolo[1,5-b]pyridazin-6-yl)pyrido[1,2-a]pyrimidin-4-one] are 0.0026 µM, 0.0337 µM and 1.78.
As for `Cc1nc2ccc(-c3cc(=O)n4cc(N5CC6(CCNCC6)C5)ccc4n3)nn2n1` [Example 38, 7-(2,7-diazaspiro[3.5]nonan-2-yl)-2-(2-methyl-[1,2,4]triazolo[1,5-b]pyridazin-6-yl)pyrido[1,2-a]pyrimidin-4-one], the values for the EC (1.5-fold) in assay [1] and in assay [2] were 0.002 µM and 0.0199 µM, respectively. Besides, the maximal fold induction in assay [2] worked out at 1.69.
For `Cc1nc2ccc(-c3cc(=O)n4cc(N5CCN(C)CC5)ccc4n3)nn2n1` [Example 39, 7-(4-methylpiperazin-1-yl)-2-(2-methyl-[1,2,4]triazolo[1,5-b]pyridazin-6-yl)pyrido[1,2-a]pyrimidin-4-one], in that order: 0.0272 µM, 0.09 µM and 1.74.
Consider `Cc1nc2ccc(-c3cc(=O)n4cc(N5CCN[C@H](C)C5)cc(C)c4n3)nn2n1` [Example 40, 9-methyl-7-[(3R)-3-methylpiperazin-1-yl]-2-(2-methyl-[1,2,4]triazolo[1,5-b]pyridazin-6-yl)pyrido[1,2-a]pyrimidin-4-one], for which the EC (1.5-fold) in assay [1] turned out to be 0.0088 µM. Moreover, in assay [2], the EC (1.5-fold) was found to be 0.0148 µM and the maximal fold induction is 2.08.
